What all share (experiment): inhibition of tumour cell growth, NCI panel, 48 h
Test [1] has as its system SK-MEL-2 melanoma.
For test [2], the system named is IGROV1 ovarian.
Test [3] concerns UO-31 renal.
Test [4] relates to A498 renal.
Test [5] concerns RXF 393 renal.
Test [6] deals with SK-OV-3 ovarian.
Test [7] concerns NCI-H23 lung.
Test [8] deals with OVCAR-4 ovarian.
The subject of test [9] is KM12 colon.
The test system of test [10] is A549 NSCLC.

Here are results for 22 molecules from PubChem BioAssay (NCI).

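Protocol summary: plate cells (96-well), add compound at 5 concentrations, incubate 48 h, interpolate endpoints linearly. The concentration for 50% growth inhibition is given as GI50. TGI: total growth inhibition.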 Bounds are passed on as bounds.

Regarding `COc1cc(/C=N/O)nc(-c2ccccn2)c1`, the GI50 in [1] is 1.86 µM; in test [2], 0.349 µM; in [3], 0.183 µM; in test [4], 0.717 µM; in [5], 0.723 µM; in test [8], 0.255 µM. For the same molecule, in [9], the GI50 was 0.385 µM. Further, the TGI was more than 100 µM in test [1]; 24.1 µM in test [2]; 6.82 µM in [3]; 19.4 µM in test [4]; 14.8 µM in test [5]; more than 100 µM in test [6]. The TGI in test [7], in [8], in test [9] and in test [10] was more than 100 µM in each case.

On to `Cc1cccc2cc3ccc4ccccc4c3cc12`, for which the TGI in [1] was 66.5 µM; in test [2] it was more than 100 µM; in test [3], more than 100 µM; in test [4] it was more than 100 µM; in test [5] it was more than 100 µM; in test [6], more than 100 µM. For the same molecule, the TGI in [7], in test [8], in test [9] and in test [10] was more than 100 µM throughout.

Regarding `c1cc(C2N3CCCN2CC3)ccn1` (stereo not given), the TGI in test [1], in test [2], in test [3], in test [4], in [5] and in test [6] was more than 100 µM each time. The TGI in [7], in test [8], in [9] and in test [10] was more than 100 µM throughout.

In the case of `Cc1ccc(C(=O)Nc2ccccc2C(=O)N/N=C(\c2ccccc2)c2ccccn2)cc1`, the TGI in test [1] was more than 100 µM; in test [2] it was more than 100 µM; in test [3], 2.66 µM; in test [5] it was more than 100 µM; in test [6] it was more than 100 µM; in [7], more than 100 µM. The TGI in test [8], in test [9] and in test [10] was more than 100 µM throughout. Moreover, the GI50 is 0.177 µM in test [2]; 0.107 µM in test [3]; 0.63 µM in test [4]; 1.53 µM in test [5]; 0.478 µM in test [6]; 0.723 µM in [7]. Further, the GI50 is 0.157 µM in test [8], 0.388 µM in test [9] and 0.703 µM in [10].

As for `CN(Cc1ccccc1)c1nc(=[N+](C)C)ss1`, the TGI in test [1], in [2], in test [3], in test [4], in test [5] and in test [6] was more than 100 µM each time. Further, the TGI in test [7], in test [8], in [9] and in test [10] was more than 100 µM in each case.

Take `O/N=C1/C(=C/c2ccc(Cl)cc2)CCCC1C(NO)c1ccc(Cl)cc1` (stereo not given): the TGI is 68.5 µM in test [1]; more than 100 µM in test [2]; 63.4 µM in [3]; 38.9 µM in test [4]; 29.6 µM in [5]; more than 100 µM in test [6]. Also, the TGI in test [7] amounted to 54 µM; in [8], 32.8 µM; in [9] it was 40.6 µM; in [10] it was 57.4 µM.

For `c1ccc([P+](CCC[P+](c2ccccc2)(c2ccccc2)c2ccccc2)(c2ccccc2)c2ccccc2)cc1`, the GI50 was 8.44 µM in test [1]; 14 µM in test [2]; 14.6 µM in [4]; 69.1 µM in test [6]; 18.8 µM in test [7]; 5.51 µM in test [8]. Further, the GI50 in [9] was 3.86 µM; in test [10], 14.5 µM. In addition, the TGI is 40 µM in test [1]; more than 100 µM in [2]; more than 100 µM in test [3]; more than 100 µM in [4]; more than 100 µM in test [5]; more than 100 µM in test [6]. Moreover, the TGI in [7], in [8], in [9] and in [10] was more than 100 µM each time.

As for `c1cc(-c2cnn3nc(N4CCOCC4)ccc23)nc(NC2CC2)n1`, the GI50 in test [1] is 7.82 µM; in test [2] it was 10.3 µM; in test [3], 7.12 µM; in test [4], 5.66 µM; in test [5], 4.58 µM; in test [6], 14.6 µM. In addition, the GI50 in [7] was 7.19 µM; in [8], 14.9 µM; in test [9], 8.13 µM; in test [10], 7.87 µM. Also, the TGI was 21.6 µM in test [1]; more than 25 µM in [2]; more than 21.4 µM in test [3]; 16.6 µM in test [4]; 10.8 µM in test [5]; more than 25 µM in [6]. Moreover, the TGI in test [7], in [8], in [9] and in test [10] was more than 25 µM throughout.

Take `COc1cc(CCC(=O)NS(=O)(=O)c2ccccc2)cc(OC)c1OC`: the TGI in test [1], in [2], in test [3], in test [4], in test [5] and in [6] was more than 100 µM each time. In addition, the TGI in test [7], in test [8], in [9] and in test [10] was more than 100 µM throughout.

Consider `CC(C)(C)[Si](Nc1ccccc1)(c1ccccc1)c1ccccc1`, for which the TGI in test [1] stood at 35.8 µM; in [2], 28.3 µM; in [3] it was 18.5 µM; in test [4] it was 31.3 µM; in test [5] it was 26.5 µM; in test [6], 30.9 µM. In addition, the TGI in [7] stood at 32.8 µM; in test [8], 27.1 µM; in test [9], 27.4 µM; in test [10], 28.2 µM.

Turning to `C#CCOc1cccc(Nc2ncnc3c2ncn3C2CCN(C(=O)CCl)C2)c1` (stereo not given), the GI50 is 25.7 µM in test [1]; 16.4 µM in [2]; 15.2 µM in [3]; more than 100 µM in [4]; 17.1 µM in test [5]; more than 100 µM in test [6]. The GI50 in test [7] was 18.4 µM; in test [8] it was 19.4 µM; in [9], 23.4 µM; in test [10], more than 100 µM. The TGI in [1] was 94.9 µM; in test [2], 36.7 µM; in test [3] it was 29.6 µM; in test [4] it was more than 100 µM; in [5] it was 36.6 µM; in [6], more than 100 µM. The TGI in test [7] is 41.3 µM; in [8] it was 45 µM; in test [9], 58.2 µM; in test [10], more than 100 µM.

For `COc1cc2c(cc1-c1c(C)noc1C)ncc1[nH]c(=O)n([C@H](C)c3ccccn3)c12`, the GI50 was 6.07 µM in test [1]; 0.765 µM in [2]; 0.119 µM in test [3]; 1.55 µM in test [4]; 3.3 µM in [5]; 0.6 µM in test [6]. Moreover, the GI50 in [7] was 6.22 µM; in test [8], 1.94 µM; in test [9] it was 3.01 µM; in test [10], 6.17 µM. The TGI is 77.6 µM in test [1]; more than 34.2 µM in test [2]; more than 57.6 µM in test [3]; 13.1 µM in [4]; more than 32.1 µM in test [5]; more than 50.1 µM in test [6]. In addition, the TGI in test [7], in [8], in test [9] and in [10] was more than 100 µM throughout.

For `CCCCCCCCCCCCCCCCCCOCC1(COP(=O)([O-])OCC[N+](C)(C)C)CCCO1` (stereo not given), the TGI stood at 22.8 µM in test [1]; 6.63 µM in [2]; 21.9 µM in test [3]; 11.8 µM in test [4]; 1.89 µM in test [5]; 27.7 µM in test [6]. Besides, the TGI in test [7] was determined as 31.9 µM; in test [8] it was 8.38 µM; in test [9], 3.33 µM; in test [10], 20.6 µM.

For the molecule `Cn1c2cc(Cl)ccc2c2ccc3c(c21)C(=O)C=CC3=O`, the TGI in test [1] was more than 100 µM; in test [2], more than 63.1 µM; in test [3], more than 100 µM; in test [4], more than 100 µM; in test [5], 40 µM; in test [6], more than 100 µM. For the same molecule, the TGI is 54.4 µM in [7], 52.3 µM in test [8], more than 100 µM in test [9] and more than 100 µM in [10].

Take `C/C=C/COc1cc(NC(=S)c2ccoc2C)ccc1OC`: the TGI in test [1], in test [2], in test [3], in [4], in test [5] and in [6] was more than 100 µM each time. Further, the TGI in test [7], in test [8], in test [9] and in test [10] was more than 100 µM in each case.

On to `CN(C)C(=S)/N=c1\ssc(=S)n1Cc1ccccn1`, for which the TGI in test [1] is 5.98 µM; in test [2], more than 100 µM; in test [3], more than 100 µM; in test [4], more than 81.4 µM; in test [5] it was 20 µM; in test [6] it was more than 100 µM. The TGI in test [7] is more than 100 µM; in test [8], more than 52.3 µM; in test [9], more than 48 µM; in test [10] it was more than 100 µM.

Turning to `CN(C)NC(=S)NC12CC3CC(CC(C3)C1)C2`, the TGI in test [1], in test [2], in [3], in test [4], in test [5] and in [6] was more than 100 µM in each case. Also, the TGI in test [7], in test [8], in test [9] and in [10] was more than 100 µM throughout.

Turning to `CC(=O)OC1C/C(C)=C/[C@H](O)CC(C)/C=C/[C@@]2(C)CCC(C(C)(C)O)C12` (stereo not given in full), the TGI in test [1], in test [2], in [3], in [4], in test [5] and in test [6] was more than 100 µM each time. Moreover, the TGI in [7], in test [8], in test [9] and in test [10] was more than 100 µM in each case.

Consider `OCCCCC#Cc1ccccc1C#Cc1cccs1`, for which the GI50 in test [1] was 19 µM; in test [2], 16.5 µM; in test [3], 16.9 µM; in test [4], 9.67 µM; in [5], 15.8 µM; in test [6], 15.5 µM. The GI50 in test [7] was 14.2 µM; in [8] it was 20.2 µM; in [9], 16.6 µM; in test [10] it was 17.4 µM. The TGI in test [1] was determined as 37.9 µM; in [2], 30.5 µM; in [3], 30.6 µM; in test [4], 23.3 µM; in [5] it was 30.3 µM; in test [6] it was 30.6 µM. Moreover, the TGI in test [7] came to 30.9 µM; in [8], 50.1 µM; in test [9], 48 µM; in test [10], 31.1 µM.

Regarding `CCCCCCCCCCCCOC(=S)NC`, the TGI in test [1] is 28.1 µM; in [2] it was 38.9 µM; in test [3], 43.7 µM; in test [4] it was 41.5 µM; in test [5] it was 32.5 µM; in test [6], 58 µM. The TGI in test [7] turned out to be 40.9 µM; in test [8], 56 µM; in test [9], 27.8 µM.

In the case of `Oc1cccc2nc3cc(CN4CCOCC4)c(CN4CCOCC4)cc3nc12`, the TGI in test [1], in test [2], in test [3], in test [4], in test [5] and in [6] was more than 100 µM each time. Also, the TGI in test [7], in test [8], in [9] and in test [10] was more than 100 µM each time.

Take `ClC1=C(Cl)C(Cl)=C(Cl)C1=Cc1ccc(Cl)cc1Cl`: the GI50 in [1] is 1.51 µM; in [2] it was 0.404 µM; in [4], 1.27 µM; in test [5] it was 0.215 µM; in test [6] it was 1.74 µM; in test [7] it was 0.281 µM. Also, the GI50 in [8] was 0.53 µM; in test [9] it was 0.686 µM; in test [10], 1.7 µM. The TGI in test [1] is 4.49 µM; in test [2] it was 3.19 µM; in test [4], 2.6 µM; in [5], 0.477 µM; in test [6], 5.98 µM; in test [7], 1.14 µM. In addition, the TGI in [8] turned out to be 5.89 µM; in [9], 2.08 µM; in [10] it was 4.52 µM.
